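GI50 = concentration required for 50% inhibition of growth. TGI marks complete inhibition of growth.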
Legend:
Assay in all cases: NCI-60 cell line screen, 384-well format
BT-549 breast = system: BT-549 breast
SF-539 CNS = system: SF-539 CNS
SW-620 colon = system: SW-620 colon
T-47D breast = system: T-47D breast
A549 NSCLC = system: A549 NSCLC
786-0 renal = system: 786-0 renal
RPMI-8226 leukemia = system: RPMI-8226 leukemia
SK-MEL-5 melanoma = system: SK-MEL-5 melanoma
OVCAR-8 ovarian = system: OVCAR-8 ovarian
MDA-MB-231 breast = system: MDA-MB-231 breast
NCI-H322M lung = system: NCI-H322M lung
HCC-2998 colon = system: HCC-2998 colon
ACHN renal = system: ACHN renal
SK-OV-3 ovarian = system: SK-OV-3 ovarian
TK-10 renal = system: TK-10 renal
CCRF-CEM leukemia = system: CCRF-CEM leukemia
HL-60(TB) leukemia = system: HL-60(TB) leukemia
HCT-15 colon = system: HCT-15 colon
KM12 colon = system: KM12 colon
MALME-3M melanoma = system: MALME-3M melanoma
HOP-92 NSCLC = system: HOP-92 NSCLC
UACC-62 melanoma = system: UACC-62 melanoma
MOLT-4 leukemia = system: MOLT-4 leukemia
UACC-257 melanoma = system: UACC-257 melanoma
SK-MEL-28 melanoma = system: SK-MEL-28 melanoma
SNB-75 CNS = system: SNB-75 CNS
NCI-H226 lung = system: NCI-H226 lung
MDA-MB-468 breast = system: MDA-MB-468 breast
SNB-19 CNS = system: SNB-19 CNS
DU-145 prostate = system: DU-145 prostate
HS 578T breast = system: HS 578T breast
PC-3 prostate = system: PC-3 prostate
MDA-MB-435 melanoma = system: MDA-MB-435 melanoma
HCT-116 colon = system: HCT-116 colon
SF-268 CNS = system: SF-268 CNS
SN12C renal = system: SN12C renal
K-562 leukemia = system: K-562 leukemia
NCI-H460 NSCLC = system: NCI-H460 NSCLC
M14 melanoma = system: M14 melanoma
MCF7 breast = system: MCF7 breast
EKVX NSCLC = system: EKVX NSCLC
NCI-H23 lung = system: NCI-H23 lung
IGROV1 ovarian = system: IGROV1 ovarian
OVCAR-3 ovarian = system: OVCAR-3 ovarian
A498 renal = system: A498 renal
SF-295 CNS = system: SF-295 CNS
OVCAR-5 ovarian = system: OVCAR-5 ovarian
NCI-H522 lung = system: NCI-H522 lung
CAKI-1 renal = system: CAKI-1 renal
RXF 393 renal = system: RXF 393 renal
UO-31 renal = system: UO-31 renal
HT29 colon = system: HT29 colon
OVCAR-4 ovarian = system: OVCAR-4 ovarian
HOP-62 NSCLC = system: HOP-62 NSCLC
LOX IMVI melanoma = system: LOX IMVI melanoma
U251 glioblastoma = system: U251 glioblastoma
NCI/ADR-RES ovarian = system: NCI/ADR-RES ovarian

O=C(NCCN1CCOCC1)Nc1nc2ccc(Sc3nnc4ccc(-c5ccc(F)cc5)nn34)cc2s1
GI50 (BT-549 breast): 2.85 µM
TGI (BT-549 breast): > 100 µM
GI50 (SF-539 CNS): 4.86 µM
TGI (SF-539 CNS): > 100 µM
GI50 (SW-620 colon): > 100 µM
TGI (SW-620 colon): > 100 µM
GI50 (T-47D breast): 3.1 µM
TGI (T-47D breast): 32.5 µM
GI50 (A549 NSCLC): > 100 µM
TGI (A549 NSCLC): > 100 µM
GI50 ([…]-0 renal): 1.61 µM
TGI (786-0 renal): 3.83 µM
GI50 (RPMI-8226 leukemia): 1.18 µM
TGI (RPMI-8226 leukemia): 2.58 µM
GI50 (SK-MEL-5 melanoma): 3.52 µM
TGI (SK-MEL-5 melanoma): 47 µM
GI50 (OVCAR-8 ovarian): > 100 µM
TGI (OVCAR-8 ovarian): > 100 µM
GI50 (MDA-MB-231 breast): 3.73 µM
TGI (MDA-MB-231 breast): > 100 µM
GI50 (NCI-H322M lung): 42.9 µM
TGI (NCI-H322M lung): > 100 µM
GI50 (HCC-2998 colon): 5.29 µM
TGI (HCC-2998 colon): 34.7 µM
GI50 (ACHN renal): > 100 µM
TGI (ACHN renal): > 100 µM
GI50 (SK-OV-3 ovarian): > 100 µM
TGI (SK-OV-3 ovarian): > 100 µM
GI50 (TK-10 renal): > 100 µM
TGI (TK-10 renal): > 100 µM
GI50 (CCRF-CEM leukemia): 4.41 µM
TGI (CCRF-CEM leukemia): > 100 µM
GI50 (HL-60(TB) leukemia): 4.25 µM
TGI (HL-60(TB) leukemia): 8.46 µM
GI50 (HCT-15 colon): 70.6 µM
TGI (HCT-15 colon): > 100 µM
GI50 (KM12 colon): 0.452 µM
TGI (KM12 colon): > 100 µM
GI50 (MALME-3M melanoma): 3.77 µM
TGI (MALME-3M melanoma): 13.3 µM
GI50 (HOP-92 NSCLC): 5.22 µM
TGI (HOP-92 NSCLC): > 100 µM
GI50 (UACC-62 melanoma): 4.58 µM
TGI (UACC-62 melanoma): 42.3 µM
GI50 (MOLT-4 leukemia): 1.74 µM
TGI (MOLT-4 leukemia): 3.53 µM
GI50 (UACC-257 melanoma): 4.3 µM
TGI (UACC-257 melanoma): > 100 µM
GI50 (SK-MEL-28 melanoma): 3 µM
TGI (SK-MEL-28 melanoma): 7.53 µM
GI50 (SNB-75 CNS): 3.2 µM
TGI (SNB-75 CNS): > 100 µM
GI50 (NCI-H226 lung): 3.04 µM
TGI (NCI-H226 lung): > 100 µM
GI50 (MDA-MB-468 breast): 2.93 µM
TGI (MDA-MB-468 breast): 8.45 µM
GI50 (SNB-19 CNS): 5.14 µM
TGI (SNB-19 CNS): > 100 µM
GI50 (DU-145 prostate): > 100 µM
TGI (DU-145 prostate): > 100 µM
GI50 (HS 578T breast): 2.31 µM
TGI (HS 578T breast): 5.35 µM
GI50 (PC-3 prostate): > 100 µM
TGI (PC-3 prostate): > 100 µM
GI50 (MDA-MB-435 melanoma): > 100 µM
TGI (MDA-MB-435 melanoma): > 100 µM
GI50 (HCT-116 colon): 77 µM
TGI (HCT-116 colon): > 100 µM
GI50 (SF-268 CNS): 2.71 µM
TGI (SF-268 CNS): 7 µM
GI50 (SN12C renal): > 100 µM
TGI (SN12C renal): > 100 µM
GI50 (K-562 leukemia): 3.98 µM
TGI (K-562 leukemia): 21.2 µM
GI50 (NCI-H460 NSCLC): 5 µM
TGI (NCI-H460 NSCLC): > 100 µM
GI50 (M14 melanoma): > 100 µM
TGI (M14 melanoma): > 100 µM
GI50 (MCF7 breast): 5.39 µM
TGI (MCF7 breast): > 100 µM
GI50 (EKVX NSCLC): 84 µM
TGI (EKVX NSCLC): > 100 µM
GI50 (NCI-H23 lung): 13 µM
TGI (NCI-H23 lung): > 100 µM
GI50 (IGROV1 ovarian): > 100 µM
TGI (IGROV1 ovarian): > 100 µM
GI50 (OVCAR-3 ovarian): > 100 µM
TGI (OVCAR-3 ovarian): > 100 µM
GI50 (A498 renal): 6.7 µM
TGI (A498 renal): > 100 µM
GI50 (SF-295 CNS): 2.34 µM
TGI (SF-295 CNS): 14.3 µM
GI50 (OVCAR-5 ovarian): > 100 µM
TGI (OVCAR-5 ovarian): > 100 µM
GI50 (NCI-H522 lung): 17.7 µM
TGI (NCI-H522 lung): > 100 µM
GI50 (CAKI-1 renal): 22.6 µM
TGI (CAKI-1 renal): > 100 µM
GI50 (RXF 393 renal): 0.606 µM
TGI (RXF 393 renal): 2.18 µM
GI50 (UO-31 renal): > 100 µM
TGI (UO-31 renal): > 100 µM
GI50 (HT29 colon): 4.93 µM
TGI (HT29 colon): 53.3 µM
GI50 (OVCAR-4 ovarian): > 100 µM
TGI (OVCAR-4 ovarian): > 100 µM
GI50 (HOP-62 NSCLC): 7.49 µM
TGI (HOP-62 NSCLC): > 100 µM
GI50 (LOX IMVI melanoma): 20.7 µM
TGI (LOX IMVI melanoma): > 100 µM
GI50 (U251 glioblastoma): 7.1 µM
TGI (U251 glioblastoma): 60.7 µM
GI50 (NCI/ADR-RES ovarian): > 100 µM
TGI (NCI/ADR-RES ovarian): > 100 µM

CS(=O)(=O)OCCCCOS(C)(=O)=O
GI50 (HL-60(TB) leukemia): 17.7 µM
GI50 (MOLT-4 leukemia): 9.66 µM
TGI (MOLT-4 leukemia): 21.8 µM

Reference: PubChem BioAssay (NCI)
